Results published in publication PMC9558510 (Cancers, 2022).

How the values were obtained:
[1] = Adverse events (CTCAE v5.0), dose reductions and treatment discontinuations; format: in vivo, human; conditions: for patients with dose reduction of the named drug due to AE during the study period: 27 patients
Excerpt: AE was routinely assessed by the treating physicians at each serum sampling time point and graded according to the […] (CTCAE) Version 5.0 [35]. Additionally, permanent and temporary treatment discontinuations, dose reductions, and corresponding reasons were documented. Further recorded patient data included age, sex, height, weight, smoking status, dosing regimen, co-medication, and relevant laboratory parameters if ordered by the treating physician (platelet count, white blood cell count, absolute neutrophil count, absolute lymphocyte count, hemoglobin, bilirubin, aspartate and alanine aminotransferase, alkaline phosphatase, gamma-glutamyl transferase, amylase, lipase, creatine kinase, phosphate, sodium, glucose, serum creatinine, and estimated glomerular filtration rate). The treatment and frequency of visits were managed by the treating physicians without knowing the measured drug concentrations. AE was not assessed simultaneously with the collection of VAMS samples.

[2] = Observed steady-state serum concentrations (LC-MS/MS) in melanoma patients; format: in vivo, human; conditions: for effect of co-medication with at least one P-gp inducer on individual mean trough concentrations / serum Cmin mean / serum Cmin median: standard dose
Method: Serum samples were collected regularly during each routine outpatient visit from study enrollment until January 2022 or until treatment discontinuation. If possible, blood sampling was performed before the next drug administration, but any time interval between the last administration and blood withdrawal was accepted. The steady-state was assumed after continuous dosing for fourteen days for both compounds.
Hydroxy-dabrafenib concentrations were analyzed using a different previously published LC-MS/MS method with an LLOQ of 10 ng/mL [37]. […] Hydroxy-dabrafenib was not quantified in capillary blood samples as the methodology was not available at the time of analysis. All the methods have been validated according to the guidelines of the U.S. Food and Drug Administration and/or the European Medicines Agency.
Data were collected and processed using Microsoft Excel 2016 Version 16.0 (Microsoft Corporation, Redmond, WA, USA). Statistical calculations and visualization of results were performed with R Studio Version 1.2.5042 (RStudio Incorporation, Boston, MA, USA) running R version 4.0.5 (R Foundation for Statistical Computing, Vienna, Austria, 2020). For further analysis, serum concentrations were divided into groups according to time interval post-dose as follows: 0–5 h, 5–10 h, 10–14 h, and >14 h for (hydroxy-)dabrafenib and 0–10 h, 10–20 h, 20–30 h, and >30 h for trametinib. Concentrations < LLOQ were excluded from further statistical analyses. The concentrations of the same patient at the same dosage and within the same post-dose group were summarized into an individual mean serum concentration for descriptive statistical analysis to account for potential bias caused by the unbalanced number of samples per patient. […] The Wilcoxon […] test was used for unpaired samples. The correlations between individual PK parameters sampled from the conditional distribution during the generation of EBE (methods for estimation see below) and age, sex, body mass index (BMI), and co-medication were analyzed using analysis of variance (ANOVA) and Spearman’s correlation coefficient. Logistic regression was used to compare the risk of treatment discontinuations or dose reductions (dabrafenib dose reduction or discontinuation, trametinib dose reduction or discontinuation, or any dose reduction or discontinuation) with the corresponding predicted trough concentrations and area under the curve of a dosing interval (AUCτ) of dabrafenib, hydroxy-dabrafenib, and trametinib as well as with the composite predicted dabrafenib/hydroxy-dabrafenib trough concentration and with composite dabrafenib/hydroxy-dabrafenib AUCτ assuming standard dosing. The Hosmer–Lemeshow test was used to evaluate the goodness of fit for our logistic regression model. Due to the explorative nature of the study, p-values obtained from multiple comparisons were not corrected for multiple testing. A p-value < 0.05 was considered statistically significant.

[3] = design: method as in PMID 33846903; conditions: cited from earlier work
[4] = design: method as in PMID 24408395; conditions: cited from earlier work
[5] = serum, dabrafenib dose of 150 mg q12h

effect of co-medication with at least one P-gp inducer on individual mean trough concentrations ([2]; serum)	serum Cmin mean ([2]; BMI (kg/m2) < 30)	serum Cmin median ([2]; BMI (kg/m2) < 30)	serum Cmin mean ([2]; BMI (kg/m2) >= 30)	serum Cmin median ([2]; BMI (kg/m2) >= 30)	serum Cmin mean ([2]; P-gp inducer: no)	serum Cmin median ([2]; P-gp inducer: no)	serum Cmin mean ([2]; P-gp inducer: yes)	serum Cmin median ([2]; P-gp inducer: yes)	serum Cmin mean ([2]; P-gp inhibitor: no)	serum Cmin median ([2]; P-gp inhibitor: no)	serum Cmin mean ([2]; P-gp inhibitor: yes)	serum Cmin median ([2]; P-gp inhibitor: yes)	serum Cmin mean ([2]; PPI: no)	serum Cmin median ([2]; PPI: no)	Compound	patients with dose reduction of the named drug due to AE during the study period [1]	dose reduction n (%) ([1]; none)	permanent treatment discontinuation n (%) ([1]; none)	temporary treatment discontinuation n (%) ([1]; none)	permanent treatment discontinuation n (%) ([1]; reason: adverse events)	also measured
significant decrease	11.2 ng/mL	11.4 ng/mL	9.93 ng/mL	9.79 ng/mL	11.5 ng/mL	11.7 ng/mL	9.3 ng/mL	9.68 ng/mL	10.9 ng/mL	11.3 ng/mL	10.5 ng/mL	10.9 ng/mL	10.8 ng/mL	11.5 ng/mL	CC(=O)Nc1cccc(-n2c(=O)n(C3CC3)c(=O)c3c(Nc4ccc(I)cc4F)n(C)c(=O)c(C)c32)c1 [trametinib]	3.7%	21 (77.8) n (%)	18 (66.7) n (%)	17 (63.0) n (%)	3 (11.1) n (%)	patients who discontinued the named drug(s) permanently due to AE ([1]; both drugs, or only trametinib): 3.7%; median of mean trough concentration ([2]; serum, 2 mg q24h): 11.2 ng/mL; range of mean trough concentration ([2]; serum, 2 mg q24h): 6.22 to 15.9 ng/mL; serum Cmin mean ([2]; PPI: yes): 10.7 ng/mL; serum Cmin median ([2]; PPI: yes): 10.9 ng/mL; serum Cmin mean ([2]; age above 65: no): 10.6 ng/mL; serum Cmin median ([2]; age above 65: no): 11.3 ng/mL; serum Cmin mean ([2]; age above 65: yes): 10.9 ng/mL; serum Cmin median ([2]; age above 65: yes): 10.9 ng/mL; serum Cmin mean ([2]; sex female): 11.1 ng/mL; serum Cmin median ([2]; sex female): 11.3 ng/mL; serum Cmin mean ([2]; sex male): 10.6 ng/mL; serum Cmin median ([2]; sex male): 11.2 ng/mL
no effect	46.5 ng/mL	42.9 ng/mL	69.1 ng/mL	54 ng/mL	60.9 ng/mL	48 ng/mL	40.4 ng/mL	41.8 ng/mL	77.8 ng/mL	52.9 ng/mL	42.4 ng/mL	41.8 ng/mL	63.1 ng/mL	51.6 ng/mL	CC(C)(C)c1nc(-c2cccc(NS(=O)(=O)c3c(F)cccc3F)c2F)c(-c2ccnc(N)n2)s1 [dabrafenib]	7.4%	24 (88.9) n (%)	19 (70.4) n (%)	17 (63.0) n (%)	2 (7.4) n (%)	protein binding [3]: > 99.5%; median of individual mean trough concentration [2, 5]: 45.0 ng/mL; range of individual mean trough concentration [2, 5]: 20 to 155 ng/mL; serum Cmin mean ([2]; PPI: yes): 32.4 ng/mL; serum Cmin median ([2]; PPI: yes): 32.4 ng/mL; serum Cmin mean ([2]; age above 65: no): 54.9 ng/mL; serum Cmin median ([2]; age above 65: no): 43.5 ng/mL; serum Cmin mean ([2]; age above 65: yes): 51.9 ng/mL; serum Cmin median ([2]; age above 65: yes): 42.9 ng/mL; serum Cmin mean ([2]; moderate CYP2C8 inhibitor: no): 58.9 ng/mL; serum Cmin median ([2]; moderate CYP2C8 inhibitor: no): 44.3 ng/mL; serum Cmin mean ([2]; moderate CYP2C8 inhibitor: yes): 46.9 ng/mL; serum Cmin median ([2]; moderate CYP2C8 inhibitor: yes): 47.4 ng/mL; serum Cmin mean ([2]; sex female): 75.5 ng/mL; serum Cmin median ([2]; sex female): 52.9 ng/mL; serum Cmin mean ([2]; sex male): 36.5 ng/mL; serum Cmin median ([2]; sex male): 39.3 ng/mL; CYP3A autoinduction: induction half-life [4]: approximately 67 h; half-life [4]: eight
